Test results published in ChEMBL document CHEMBL1201862, “PubChem BioAssay data set” (2004).
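Growth conditions: 96-well plates. Treatment: test compound, 48 hours, 5 concentrations. Analysis: linear interpolation between bracketing concentrations; unreached endpoints set to highest concentration. GI50 marks 50% less growth.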 Activity calls are given as the source filed them. Cut-off read from the data, not from the text of the source: active = GI50 up to about 1.1 µM and inactive = higher.

How the values were obtained:
Assay in all cases: inhibition of tumour cell growth, NCI panel, 48 h
786-0 = test system: 786-0
A549 = test system: A549
ACHN = test system: ACHN
BT-549 = test system: BT-549
COLO 205 = test system: COLO 205
HCT-116 = test system: HCT-116
HOP-92 = test system: HOP-92
IGROV-1 = test system: IGROV-1
MDA-N = test system: MDA-N
Malme-3M = test system: Malme-3M
NCI/ADR-RES = test system: NCI/ADR-RES
OVCAR-8 = test system: OVCAR-8
SK-MEL-2 = test system: SK-MEL-2
SK-MEL-5 = test system: SK-MEL-5
SK-OV-3 = test system: SK-OV-3
SNB-19 = test system: SNB-19
SNB-75 = test system: SNB-75
UACC-62 = test system: UACC-62
UO-31 = test system: UO-31

Measured: GI50

Cc1ccc(S(=O)(=O)OC2CCN(C)CC2)cc1
inactive: 786-0 > 100 µM | A549 57.8 µM | ACHN 32.6 µM | BT-549 > 100 µM | COLO 205 21.7 µM | HCT-116 46.6 µM | HOP-92 19.8 µM | IGROV-1 > 100 µM | MDA-N > 100 µM | Malme-3M 19 µM | NCI/ADR-RES > 100 µM | OVCAR-8 > 100 µM | SK-MEL-2 > 100 µM | SK-MEL-5 15.6 µM | SK-OV-3 > 100 µM | SNB-19 > 100 µM | SNB-75 42.4 µM | UACC-62 > 100 µM

O=C(O)Cc1c(O)ccc2ccccc12
inactive: 786-0 > 100 µM | A549 > 100 µM | ACHN > 100 µM | BT-549 > 100 µM | COLO 205 > 100 µM | HCT-116 > 100 µM | HOP-92 > 100 µM | IGROV-1 > 100 µM | MDA-N > 100 µM | Malme-3M > 100 µM | NCI/ADR-RES > 100 µM | OVCAR-8 > 100 µM | SK-MEL-2 > 100 µM | SK-MEL-5 > 100 µM | SK-OV-3 > 100 µM | SNB-19 > 100 µM | SNB-75 > 100 µM | UACC-62 > 100 µM

Cn1c2ccccc2c2cc(-c3ccccc3)c3c(c21)C(=O)C=CC3=O
inactive: 786-0 8.15 µM | A549 60.1 µM | ACHN 19.8 µM | BT-549 12.4 µM | COLO 205 17.5 µM | HCT-116 20.2 µM | HOP-92 14.5 µM | IGROV-1 22.8 µM | MDA-N 19.4 µM | Malme-3M 19.5 µM | NCI/ADR-RES 41.3 µM | OVCAR-8 30.3 µM | SK-MEL-2 22.4 µM | SK-MEL-5 28.3 µM | SK-OV-3 > 88.1 µM | SNB-19 36.6 µM | SNB-75 27.6 µM | UACC-62 19.3 µM | UO-31 19.8 µM

O=C(O)C1(Cc2ccccc2)Cc2cc3c(cc2C1)CCC3
inactive: 786-0 > 100 µM | A549 51.4 µM | ACHN > 100 µM | BT-549 > 100 µM | COLO 205 > 100 µM | HCT-116 42.9 µM | HOP-92 21 µM | IGROV-1 > 100 µM | MDA-N > 100 µM | Malme-3M > 100 µM | NCI/ADR-RES 89.3 µM | OVCAR-8 > 100 µM | SK-MEL-2 82 µM | SK-MEL-5 > 100 µM | SK-OV-3 > 100 µM | SNB-19 > 100 µM | SNB-75 > 100 µM | UACC-62 > 100 µM | UO-31 95.3 µM

Cc1cc(C)c2c(=O)n(CC(O)CN3CCN(CCOCCO)CC3)sc2n1 (stereo unspecified)
inactive: 786-0 16.9 µM | A549 32.4 µM | ACHN 20 µM | BT-549 16.6 µM | COLO 205 17.7 µM | HCT-116 17.1 µM | HOP-92 19.4 µM | IGROV-1 43.9 µM | MDA-N 15.6 µM | Malme-3M 18.8 µM | NCI/ADR-RES > 100 µM | OVCAR-8 19.9 µM | SK-MEL-2 19.7 µM | SK-MEL-5 15.1 µM | SK-OV-3 26.4 µM | SNB-19 36.5 µM | SNB-75 1.65 µM | UACC-62 18.7 µM | UO-31 20.7 µM

COC(=O)C(Cc1ccccc1)NC(=O)CSc1nnc(COc2ccc(Cl)cc2)n1-c1ccccc1 (stereo unspecified)
inactive: 786-0 16.3 µM | A549 39.4 µM | ACHN 16.4 µM | BT-549 27.4 µM | COLO 205 20.4 µM | HCT-116 23.1 µM | HOP-92 26.4 µM | IGROV-1 27.5 µM | MDA-N 20.5 µM | Malme-3M 19.7 µM | NCI/ADR-RES 21.8 µM | SK-MEL-2 17.7 µM | SK-MEL-5 17.1 µM | SK-OV-3 15.8 µM | SNB-19 49.9 µM | SNB-75 23.8 µM | UACC-62 14.6 µM | UO-31 1.83 µM
